Reference: US10196357B2, “Biaryl compositions and methods for modulating a kinase cascade” (Athenex, Inc., priority 2007, dated 2019)
Where “and” joins values, the source holds several entries; their conditions need not be identical. Equal entries are not always repeated. Where two headings read alike, the source gives them in different places.

Assays:
HT29 cell line = assay: BrdU cell growth inhibition, HT29; type: cell-based, human; details: Homo sapiens, read-out: GI50
How it was run: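 HT29 colon carcinoma cells treated with compounds diluted from 20 mM DMSO stocks into DMEM/10% FBS. Proliferation read as colorimetric BrdU incorporation ELISA; GI calculated relative to untreated cells at time 0 and control cells at day n, with GI50 extrapolated. Net cell loss below time-0 level scored as cytotoxicity.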

c-Src 3T3 cells = assay: BrdU cell growth inhibition, c-Src 3T3; type: cell-based, mouse; details: Mus musculus; c-Src 3T3 (c-Src527F/NIH3T3) cells; read-out: GI50
How it was run: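 c-Src 3T3 cells on poly-D-lysine plates in DMEM with 2% FBS, L-glutamine, pyruvate and 10 mM HEPES. Compounds came from 20 mM DMSO stocks diluted in DMEM/10% FBS. Proliferation was read by colorimetric BrdU-incorporation ELISA, and GI50 was extrapolated from growth relative to time-zero and untreated controls.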

L3.6pl cells = assay: growth inhibition (BrdU), L3.6pl; type: cell-based, human; details: Homo sapiens, L3.6pl, L3.6pl (Pancreas) cells, single agent
From the text: L3.6pl cells are previously described in Trevino et al. Am J Pathol.

Shc Y239/240 = assay: intracellular phosphorylation, Shc Y239/240; type: cell-based; details: whole cells
Protocol: (§1) HT29 (colon cancer) and c-Src527F/NIH-3T3 (Src transformed) cell lines were treated with KX2-391 or with AstraZeneca's ATP competitive Src inhibitor AZ28. AZ28 serves as a positive comparator to show what a validated Src inhibitor should do in these assays. After treatment with compound, cells were lysed, subjected to PAGE and probed with a battery of antibodies. […] In addition, off-target protein phosphorylation was also investigated. Further, induction of apoptosis was evaluated via Caspase 3 cleavage. Multiple doses of each compound were tested because the trends in response to increasing drug concentration are the most reliable indicator of activity.
(§2) The same range of multiples of the GI50 for AZ28 in these two cell lines was run as a comparison.
KX2-391 and AZ28 inhibited Src transphosphorylation.

[1] = system: PDGF receptor tyrosine kinase Y572/574; assay: PDGF receptor autophosphorylation in cells; type: cell-based; details: c-Src527F/NIH-3T3 cells
Protocol: as §1, §2
This is thought not to be a direct Src substrate in cells.

[2] = brain exposure after oral administration; type: in vivo, male CD-1 mice; details: for AUClast / Cmax / Tmax: Brain; for Kp: brain and plasma, read-out: AUClast Brain/AUClast Plasma Ratio
Protocol: Plasma concentrations were measured in mice after oral administration. All doses were formulated in purified water. Four groups of male CD-1 mice were dosed after an overnight fast and fed 4 hours post-dose. Dosing was as follows:
Protein was precipitated with 0.25 mL acetonitrile for plasma, 0.25 mL for brain. After centrifugation, supernatant was directly injected into an LC/MS system. The limit of quantitation was 1 ng/mL using a 50 μL aliquot for plasma and a 50 μL, aliquot for brain. The standard curve was 1 to 1,000 ng/mL for both plasma and brain. HPLC conditions were as follows:
HPLC System: Shimadzu SCL-10 System
• Analytical Column: Aquasil C18 5 μm 100×2 mm column. • Column Temperature: Ambient temperature • Autosampler Temperature: Ambient temperature • Mobile Phase A) 10 mM Ammonium formate in water (pH 4). • B) Acetonitrile. • Flow Rate: 0.6 mL/min • Injection Volume: 2 μL • Gradient:
• Mass Spectrometry Conditions were as follows: • Instrument: ABI Sciex API 4000 • Mode: ESI+ • Experiment: MRM (multiple reaction monitoring) • Transitions: KX2-391: m/z 432.4→114.2 (Rt=3.11 minute) • KX2-361: m/z 406.1→253.2 (Rt=3.33 minute)

[3] = body weight in GL261 glioma survival study; type: in vivo; details: 5 mg/kg, C57BL/6 mice
Protocol: A brain tumor mouse xenograft study was conducted comparing KX2-361 and KX2-391 (KXO1) to Temodar®. The studies were conducted in C57BL/6 mice. GL261 glioma cells (1×10^5 in 5 μl DMEM) were implanted intracranial coordinates: bregma, lateral 2.0 mm, anterior 1.2 mm, 3.0 mm depth dura. Treatment was initiated 3 days post implantation. The groups were as follows (all doses in 100 μl H2O):
FIGS. 49A-E show the weight gain in each of the C57BL/6 mice in the different treatment groups. The average weight at endpoint for each of the treatment groups is shown below in Table 30. FIG. 50 is a graph showing the average weights over a 40-day period for each of the treatment groups.

[4] = male, CD-1, mouse, single oral dose 10 mg/kg
[5] = male, CD-1, mouse, single oral dose 50 mg/kg

## O=C(Cc1ccc(-c2ccc(OCCN3CCOCC3)cc2)cn1)NCc1ccccc1 [KX2-391]
HT29 cell line; HT-29, HT29 (Colon) cells
  GI50: 23 nM
HT29 cell line; HT-29, HT-29, BrdU, T=72
  GI50: 15.4 nM
c-Src 3T3 cells
  GI50: 13 nM
L3.6pl cells
  GI50: 53 nM
Shc Y239/240
  phosphorylation of Shc Y239/240 (Src transphosphorylation): inhibited
[1]
  PDGF receptor Y572/574 autophosphorylation: Some effect
[2]; single oral dose 10 mg/kg
  AUClast: 631 ng·h/g
[2]; single oral dose 50 mg/kg
  AUClast: 4211 ng·h/g
[2]; Male CD-1 mice, single PO dose 50 mg/kg (Group 4), 0 hr, Group A
  KX2-391 Brain Concentrations, Group A: BLQ (BLQ: Below Limit of Quantitation (1 ng/mL))
[2]; Male CD-1 mice, single PO dose 50 mg/kg (Group 4), 0 hr, Group B
  KX2-391 Brain Concentrations, Group B: BLQ (BLQ: Below Limit of Quantitation (1 ng/mL))
[2]; Male CD-1 mice, single PO dose 50 mg/kg (Group 4), 0 hr, Group C
  KX2-391 Brain Concentrations, Group C: BLQ (BLQ: Below Limit of Quantitation (1 ng/mL))
[2]; [4]
  Kp: 0.42
  Cmax: 398 ng/g
  Tmax: 30 min
[2]; [5]
  Kp: 0.39
  Cmax: 3690 ng/g
  Tmax: 30 min
[2]; male, CD-1, mouse, brain, po, 10 mg/kg, single PO dose 10 mg/kg (Group 1), 0.5 hr, read-out: Brain Concentrations, Group A, B, C
  concentration at 0.5 h: 398 ng/g
[2]; male, CD-1, mouse, brain, po, 10 mg/kg, single PO dose 10 mg/kg (Group 1), 0.5 hr, read-out: Brain Concentrations, Mean
  concentration at 0.5 h: 398 ng/g
[2]; male, CD-1, mouse, brain, po, 10 mg/kg, single PO dose 10 mg/kg (Group 1), 1 hr, read-out: Brain Concentrations, Mean
  concentration at 1 h: 170 ng/g
[2]; male, CD-1, mouse, brain, po, 10 mg/kg, single PO dose 10 mg/kg (Group 1), 2 hr, read-out: Brain Concentrations, Group A, B, C
  concentration at 2 h: 126 ng/g
[2]; male, CD-1, mouse, brain, po, 10 mg/kg, single PO dose 10 mg/kg (Group 1), 2 hr, read-out: Brain Concentrations, Mean
  concentration at 2 h: 98.5 ng/g
[2]; male, CD-1, mouse, brain, po, 10 mg/kg, single PO dose 10 mg/kg (Group 1), 5 hr, read-out: Brain Concentrations, Group A, B, C
  concentration at 5 h: 67.7 ng/g
[2]; male, CD-1, mouse, brain, po, 10 mg/kg, single PO dose 10 mg/kg (Group 1), 5 hr, read-out: Brain Concentrations, Mean
  concentration at 5 h: 71.4 ng/g
[2]; male, CD-1, mouse, brain, po, 50 mg/kg, Male CD-1 mice, single PO dose 50 mg/kg (Group 4), 0 hr, Mean, read-out: KX2-391 Brain Concentrations, Mean
  concentration at 0 hr: 0 ng/g
[2]; male, CD-1, mouse, brain, po, 50 mg/kg, Male CD-1 mice, single PO dose 50 mg/kg (Group 4), 0.5 hr, Group A, read-out: KX2-391 Brain Concentrations, Group A
  concentration at 0.5 hr: 960 ng/g
[2]; male, CD-1, mouse, brain, po, 50 mg/kg, Male CD-1 mice, single PO dose 50 mg/kg (Group 4), 0.5 hr, Group B, read-out: KX2-391 Brain Concentrations, Group B
  concentration at 0.5 hr: 2120 ng/g
[2]; male, CD-1, mouse, brain, po, 50 mg/kg, Male CD-1 mice, single PO dose 50 mg/kg (Group 4), 0.5 hr, Group C, read-out: KX2-391 Brain Concentrations, Group C
  concentration at 0.5 hr: 1050 ng/g
[2]; male, CD-1, mouse, brain, po, 50 mg/kg, Male CD-1 mice, single PO dose 50 mg/kg (Group 4), 0.5 hr, Mean, read-out: KX2-391 Brain Concentrations, Mean
  concentration at 0.5 hr: 1380 ng/g
[2]; male, CD-1, mouse, brain, po, 50 mg/kg, Male CD-1 mice, single PO dose 50 mg/kg (Group 4), 1 hr, Group A, read-out: KX2-391 Brain Concentrations, Group A
  concentration at 1 hr: 851 ng/g
[2]; male, CD-1, mouse, brain, po, 50 mg/kg, Male CD-1 mice, single PO dose 50 mg/kg (Group 4), 1 hr, Group B, read-out: KX2-391 Brain Concentrations, Group B
  concentration at 1 hr: 1890 ng/g
[2]; male, CD-1, mouse, brain, po, 50 mg/kg, Male CD-1 mice, single PO dose 50 mg/kg (Group 4), 1 hr, Group C, read-out: KX2-391 Brain Concentrations, Group C
  concentration at 1 hr: 549 ng/g
[2]; male, CD-1, mouse, brain, po, 50 mg/kg, Male CD-1 mice, single PO dose 50 mg/kg (Group 4), 1 hr, Mean, read-out: KX2-391 Brain Concentrations, Mean
  concentration at 1 hr: 1100 ng/g
[2]; male, CD-1, mouse, brain, po, 50 mg/kg, Male CD-1 mice, single PO dose 50 mg/kg (Group 4), 2 hr, Group A, read-out: KX2-391 Brain Concentrations, Group A
  concentration at 2 hr: 414 ng/g
[2]; male, CD-1, mouse, brain, po, 50 mg/kg, Male CD-1 mice, single PO dose 50 mg/kg (Group 4), 2 hr, Group B, read-out: KX2-391 Brain Concentrations, Group B
  concentration at 2 hr: 986 ng/g
[2]; male, CD-1, mouse, brain, po, 50 mg/kg, Male CD-1 mice, single PO dose 50 mg/kg (Group 4), 2 hr, Group C, read-out: KX2-391 Brain Concentrations, Group C
  concentration at 2 hr: 874 ng/g
[2]; male, CD-1, mouse, brain, po, 50 mg/kg, Male CD-1 mice, single PO dose 50 mg/kg (Group 4), 2 hr, Mean, read-out: KX2-391 Brain Concentrations, Mean
  concentration at 2 hr: 758 ng/g
[2]; male, CD-1, mouse, brain, po, 50 mg/kg, Male CD-1 mice, single PO dose 50 mg/kg (Group 4), 5 hr, Group A, read-out: KX2-391 Brain Concentrations, Group A
  concentration at 5 hr: 122 ng/g
[2]; male, CD-1, mouse, brain, po, 50 mg/kg, Male CD-1 mice, single PO dose 50 mg/kg (Group 4), 5 hr, Group B, read-out: KX2-391 Brain Concentrations, Group B
  concentration at 5 hr: 260 ng/g
[2]; male, CD-1, mouse, brain, po, 50 mg/kg, Male CD-1 mice, single PO dose 50 mg/kg (Group 4), 5 hr, Group C, read-out: KX2-391 Brain Concentrations, Group C
  concentration at 5 hr: 239 ng/g
[2]; male, CD-1, mouse, brain, po, 50 mg/kg, Male CD-1 mice, single PO dose 50 mg/kg (Group 4), 5 hr, Mean, read-out: KX2-391 Brain Concentrations, Mean
  concentration at 5 hr: 207 ng/g
[2]; male, CD-1, mouse, brain, po, 50 mg/kg, single PO dose 50 mg/kg (Group 2), 0.5 hr, read-out: Brain Concentrations, Group A, B, C
  concentration at 0.5 h: 2800 ng/g
[2]; male, CD-1, mouse, brain, po, 50 mg/kg, single PO dose 50 mg/kg (Group 2), 0.5 hr, read-out: Brain Concentrations, Mean
  concentration at 0.5 h: 3690 ng/g
[2]; male, CD-1, mouse, brain, po, 50 mg/kg, single PO dose 50 mg/kg (Group 2), 1 hr, read-out: Brain Concentrations, Group A, B, C
  concentration at 1 h: 946 ng/g
[2]; male, CD-1, mouse, brain, po, 50 mg/kg, single PO dose 50 mg/kg (Group 2), 1 hr, read-out: Brain Concentrations, Mean
  concentration at 1 h: 788 ng/g
[2]; male, CD-1, mouse, brain, po, 50 mg/kg, single PO dose 50 mg/kg (Group 2), 2 hr, read-out: Brain Concentrations, Group A, B, C
  concentration at 2 h: 613 ng/g
[2]; male, CD-1, mouse, brain, po, 50 mg/kg, single PO dose 50 mg/kg (Group 2), 2 hr, read-out: Brain Concentrations, Mean
  concentration at 2 h: 610 ng/g
[2]; male, CD-1, mouse, brain, po, 50 mg/kg, single PO dose 50 mg/kg (Group 2), 5 hr, read-out: Brain Concentrations, Mean
  concentration at 5 h: 370 ng/g
[2]; single PO dose 10 mg/kg (Group 1), 0.5 hr, 10 mg/kg
  Brain Concentrations, Group A, B, C: 509.00 ng/g and 286.70 ng/g
[2]; single PO dose 10 mg/kg (Group 1), 2 hr, 10 mg/kg
  Brain Concentrations, Group A, B, C: 84.04 ng/g and 85.88 ng/g
[2]; single PO dose 10 mg/kg (Group 1), 5 hr, 10 mg/kg
  Brain Concentrations, Group A, B, C: 75.21 ng/g and 71.22 ng/g
[2]; single PO dose 50 mg/kg (Group 2), 0.5 hr, 50 mg/kg
  Brain Concentrations, Group A, B, C: 3190.42 ng/g and 5089.32 ng/g
[2]; single PO dose 50 mg/kg (Group 2), 1 hr, 50 mg/kg
  Brain Concentrations, Group A, B, C: 936.29 ng/g and 482.22 ng/g
[2]; single PO dose 50 mg/kg (Group 2), 2 hr, 50 mg/kg
  Brain Concentrations, Group A, B, C: 530.41 ng/g and 684.97 ng/g
[3]
  Average weight at endpoint: 14.3 g
